Measured values from EP2794556B1, “BIS-(ARYL/HETEROARYL)-METHYLENE COMPOUNDS, PHARMACEUTICAL COMPOSITIONS CONTAINING SAME AND THEIR USE FOR TREATING CANCER” (Gleason, James L., priority 2011, dated 2013).

Key:
RXF 393 = assay: NCI 60 cell panel
SF-295 = assay: NCI 60 cell panel
BT-549 = assay: NCI 60 cell panel
T-47D = assay: NCI 60 cell panel
NCI-H226 = assay: NCI 60 cell panel
UACC-62 = assay: NCI 60 cell panel
VDR = biological target: T1, VDR (Homo sapiens, UniProt P11473); assay: VDR agonism by induction of CYP24 gene expression (RT/PCR); type: cell-based
T1 construct: endogenous in cells; host or cells: SCC25 human head and neck squamous carcinoma cells
T1 sequence (P11473 1-427): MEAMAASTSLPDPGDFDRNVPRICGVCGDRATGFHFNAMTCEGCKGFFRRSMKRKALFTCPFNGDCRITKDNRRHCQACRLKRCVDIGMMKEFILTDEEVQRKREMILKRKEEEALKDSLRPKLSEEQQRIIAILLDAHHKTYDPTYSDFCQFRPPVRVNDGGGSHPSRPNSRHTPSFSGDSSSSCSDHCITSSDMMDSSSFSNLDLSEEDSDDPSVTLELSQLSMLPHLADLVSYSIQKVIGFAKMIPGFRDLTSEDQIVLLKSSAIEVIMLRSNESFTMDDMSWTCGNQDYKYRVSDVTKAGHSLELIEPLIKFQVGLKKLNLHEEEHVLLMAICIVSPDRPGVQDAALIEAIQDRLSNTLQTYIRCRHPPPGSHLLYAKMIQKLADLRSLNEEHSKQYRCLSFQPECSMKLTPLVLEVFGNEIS

OVCAR-5 = assay: NCI 60 cell panel
SCC4 cells [1] = assay: MTS cell proliferation assay; type: cell-based, human; settings: vitamin D resistant SCC4 cells, Figures 7c, 8 and 9
Source text: Dose-dependent effects of compounds on cell cycle progression was monitored using a CellTiter 96 Aqueous Non-Radioactive Cell Proliferation Assay Kit (Promega). The assay composed of solutions of a novel tetrazolium compound (MTS) and an electron coupling reagent (phenazine methosulfate; PMS). MTS is reduced by metabolically active cells into a soluble formazan product that absorbs at 490nm. The quantity of formazan product absorbing at 490nm is directly proportional to the number of living cells.

SCC4 cells [2] = assay: EdU cell growth assay
Experimental: EdU cell growth assay. Click-iT EdU Alexa Fluor high-throughput imaging (HCS) assay for cell proliferation. HCS assays were performed on AT84 mouse squamous carcinoma cell line (ATCC) following the manufacturer's instruction (Molecular Probes, Invitrogen). […] All samples were in triplicate.

NCI-H460 = assay: NCI 60 cell panel
UO-31 = assay: NCI 60 cell panel
SK-MEL-2 = assay: NCI 60 cell panel
U251 = assay: NCI 60 cell panel
RPMI-8226 = assay: NCI 60 cell panel

CCC(CC)(c1ccc(OCC(=O)NO)c(C)c1)c1ccc(OCC(O)C(C)(C)C)c(C)c1 (racemic) [JF-B01, N-Hydroxy-2-(4-(3-(4-(2-hydroxy-3,3-dimethylbutoxy)-3-methylphenyl)pentan-3-yl)-2-methylphenoxy)acetamide]
GI50 (RXF 393; Homo sapiens, RXF 393): 5.34 µM
CC50 (RXF 393; Homo sapiens, RXF 393, read-out: LC50): 47.5 µM
TGI (RXF 393; Renal Cancer, RXF 393): 1.91E-5
TGI (SF-295; CNS Cancer, SF-295): 2.02E-5
GI50 (SF-295; Homo sapiens, SF-295): 7.61 µM
CC50 (SF-295; Homo sapiens, SF-295, read-out: LC50): 44.9 µM
TGI (BT-549; Breast Cancer, BT-549): 7.74E-6
GI50 (BT-549; Homo sapiens, BT-549): 2.03 µM
CC50 (BT-549; Homo sapiens, BT-549, read-out: LC50): 28.5 µM
TGI (T-47D; Breast Cancer, T-47D): 6.69E-6
GI50 (T-47D; Homo sapiens, T47D): 2.21 µM
CC50 (T-47D; Homo sapiens, T47D, read-out: LC50): 27.1 µM
GI50 (NCI-H226; Homo sapiens, NCI-H226): 1.98 µM
CC50 (NCI-H226; Homo sapiens, NCI-H226, read-out: LC50): 33 µM
TGI (NCI-H226; Non-Small Cell Lung Cancer, NCI-H226): 1.07E-5
GI50 (UACC-62; Homo sapiens, UACC-62): 1.68 µM
CC50 (UACC-62; Homo sapiens, UACC-62, read-out: LC50): 11.5 µM
TGI (UACC-62; Melanoma, UACC-62): 4.22E-6
induction of CYP24 by the compound was blocked (VDR; Fig. 1c, blocking agent not given): blocked
VDR agonist potency compared with that of LG190178 (VDR; SCC25 cells, Fig. 1b): equal to or greater
VDR agonist potency, fold lower than that of 1,25D (VDR; SCC25 cells, Fig. 1b): approximately 10 fold
VDR agonist activity and potency, induction of CYP24 gene expression (VDR; SCC25 cells, Fig. 1b, 1d): efficacious agonist
VDR agonism by induction of CYP24 gene expression (VDR; screen at 10 µM, SCC25 cells, Fig. 1a): agonist activity
GI50 (OVCAR-5; Homo sapiens, OVCAR-5): 12.9 µM
CC50 (OVCAR-5; Homo sapiens, OVCAR-5, read-out: LC50): 50.6 µM
TGI (OVCAR-5; Ovarian Cancer, OVCAR-5): 2.56E-5
antiproliferative potency (SCC4 cells [1]): low micromolar potency
inhibition of proliferation, EdU incorporation (SCC4 cells [2]; 1,25D-resistant SCC4 cells, Fig. 2e, f): completely
EdU incorporation at higher concentrations (SCC4 cells [2]; SCC4 cells, higher concentrations): completely abolished EdU incorporation
GI50 (NCI-H460; Homo sapiens, NCI-H460): 1.6 µM
CC50 (NCI-H460; Homo sapiens, NCI-H460, read-out: LC50): 9.51 µM
TGI (NCI-H460; Non-Small Cell Lung Cancer, NCI-H460): 3.90E-6
GI50 (UO-31; Homo sapiens, UO-31): 1.92 µM
CC50 (UO-31; Homo sapiens, UO-31, read-out: LC50): 26.2 µM
TGI (UO-31; Renal Cancer, UO-31): 6.95E-6
GI50 (SK-MEL-2; Homo sapiens, SK-MEL-2): 1.9 µM
CC50 (SK-MEL-2; Homo sapiens, SK-MEL-2, read-out: LC50): 30 µM
TGI (SK-MEL-2; Melanoma, SK-MEL-2): 5.24E-6
TGI (U251; CNS Cancer, U251): 1.23E-5
GI50 (U251; Homo sapiens, U-251): 2.34 µM
CC50 (U251; Homo sapiens, U-251, read-out: LC50): 40 µM
GI50 (RPMI-8226; Homo sapiens, RPMI-8226): 1.12 µM
CC50 (RPMI-8226; Homo sapiens, RPMI-8226, read-out: LC50): 82.5 µM
TGI (RPMI-8226; Leukemia, RPMI-8226): 8.68E-6
